Source: US4234546A, “Liquid/liquid extraction of nickel values” (Shell Oil Company, priority 1977, dated 1980)
Where two headings read alike, the source gives them in different places.

Description: The extent to which nickel values in the aqueous solution are transferred into the extractant, expressed in terms of a "distribution coefficient", is also of importance. The distribution coefficient after t minutes' agitation is defined as
wherein "a" is as defined hereinbefore and "c" is the nickel content of the aqueous phase, expressed in mg Ni/l.
The temperature in the vessel was held constant by circulating water through the space between the outer and the inner walls of the vessel. The vessel was provided with an inlet tube, a sampling cock at the bottom, a six-bladed turbine stirrer with a distance between the ends of the opposite tips of 2.8 cm, and four baffles, connected to the wall of the vessel and extending to the central axis over a distance of 0.7 cm. The stirrer speed was 2000 revolutions per minute.
100 ml of the starting organic extractant was introduced into the cylindrical vessel, the blades of the stirrer were positioned at the surface of the organic solution, stirring was started, and 100 ml of the starting aqueous solution was poured into the vessel. […] The temperature of the batch extraction mixture was held at 50° C. When equilibrium was reached, stirring was discontinued, the two phases were allowed to separate and the concentrations of the nickel in the organic phase and in the aqueous phase were determined. […] Stirring was again started and continued until equilibrium was attained at the higher pH. The two phases were allowed to separate and the concentrations of the nickel in the organic phase and in the aqueous phase were again determined. The procedure was continued in this manner to obtain equilibrium distribution coefficient data at several pH values.

1-(4-C10-14 -alkylphenyl)-1,2-nonanedione dioximes [Dioximes D]
log D (logarithm of nickel value extraction distribution coefficient) (pH 1.6): 0.14
log D (logarithm of nickel value extraction distribution coefficient) (pH 2.08): 0.87

1-(4-C10-14 -alkylphenyl)-1,2-propanedione dioximes [Dioximes C1]
log D (logarithm of nickel value extraction distribution coefficient) (pH 1.42): -0.30
log D (logarithm of nickel value extraction distribution coefficient) (pH 1.66): 0.10
log D (logarithm of nickel value extraction distribution coefficient) (pH 2): 0.80
log D (logarithm of nickel value extraction distribution coefficient) (pH 2.55): 1.76

2-(4-C10-14 -alkylphenyl)-2-hydroxyiminoethanal oximes [Dioximes B]
log D (logarithm of nickel value extraction distribution coefficient) (pH 1.36): -0.38
log D (logarithm of nickel value extraction distribution coefficient) (pH 1.7): 0.12
log D (logarithm of nickel value extraction distribution coefficient) (pH 2.1): 0.82
log D (logarithm of nickel value extraction distribution coefficient) (pH 2.66): 1.84

CCCCCCCC(=NO)C(CCCCCCC)=NO [Dioxime A, 8,9-hexadecanedione dioxime, reference compound]
log D (logarithm of nickel value extraction distribution coefficient) (pH 1.58): -0.70
log D (logarithm of nickel value extraction distribution coefficient) (pH 1.89): -0.22
log D (logarithm of nickel value extraction distribution coefficient) (pH 2.04): 0.18
log D (logarithm of nickel value extraction distribution coefficient) (pH 2.7): 1.19
